Test results as given in the NIST ThermoML archive (doi:10.1021/acs.jced.5b00536).
Several values for one entry are separate records, joined by “and”; a condition that tells them apart may be missing. Equal values may be shown once.

Test: xn = mol fraction of the nth substance listed
Conditions: x2 = 0.79; for electrical conductivity / mass density: 100 kPa, Liquid; for electrical conductivity: Alternating current cell with electrodes; for mass density: Buoyancy - hydrostatic balance; for surface tension liquid-gas: Maximal bubble pressure

[Ca+2].[F-].[F-] [calcium fluoride] + [F-].[Li+]
Conditions	electrical conductivity [S/m]	mass density	surface tension liquid-gas [mN/m]
1063.8 K	0.053003	–	–
1065.5 K	0.053101	–	–
1067.1 K	0.053153	–	–
1068.8 K	0.05333	–	–
1070.4 K	0.05353	–	–
1071.9 K	0.05375	–	–
1073.5 K	0.05359	–	–
1075.2 K	0.0537	–	–
1075.7 K	–	2107.8 kg/m3	–
1075.9 K	–	2107.3 kg/m3	–
1076.2 K	–	2106.7 kg/m3 and 2107.8 kg/m3	–
1076.7 K	–	2106.6 kg/m3	–
1076.8 K	0.05368	2106 kg/m3	–
1077.1 K	–	2106 kg/m3	–
1077.5 K	–	2105.4 kg/m3	–
1077.7 K	–	2104.8 kg/m3	–
1078 K	–	2104.8 kg/m3	–
1078.4 K	–	2104.2 kg/m3	–
1078.5 K	0.05386	–	–
1078.7 K	–	2104.1 kg/m3	–
1079.1 K	–	2103.5 kg/m3	–
1079.4 K	–	2103.5 kg/m3	–
1079.8 K	–	2102.9 kg/m3	–
1080 K	–	2102.9 kg/m3	–
1080.1 K	0.05394	–	–
1080.3 K	–	2102.3 kg/m3	–
1080.7 K	–	2101.7 kg/m3	–
1081.1 K	–	2101.6 kg/m3	–
1081.4 K	–	2101 kg/m3	–
1081.8 K	0.054	2101 kg/m3	–
1082 K	–	2100.4 kg/m3	–
1082.4 K	–	2099.8 kg/m3	–
1082.9 K	–	2099.7 kg/m3	–
1083.4 K	0.0542	–	–
1083.5 K	–	2099.1 kg/m3	–
1083.6 K	–	2099.1 kg/m3	–
1083.8 K	–	2098.5 kg/m3	–
1084.3 K	–	2098.5 kg/m3	–
1084.5 K	–	2097.9 kg/m3	–
1085 K	–	2097.8 kg/m3	–
1085.1 K	0.05436	–	–
1085.5 K	–	2097.2 kg/m3	–
1085.9 K	–	2096.6 kg/m3	–
1086.1 K	–	2096.6 kg/m3	–
1086.4 K	–	2096 kg/m3	–
1086.8 K	0.05455	–	–
1086.9 K	–	2095.9 kg/m3	–
1087.2 K	–	2095.3 kg/m3	–
1087.8 K	–	2094.7 kg/m3	–
1088.2 K	–	2094.7 kg/m3	–
1088.4 K	0.05469	–	–
1088.6 K	–	2094.1 kg/m3	–
1088.8 K	–	2094 kg/m3	–
1089.3 K	–	2093.4 kg/m3	–
1089.5 K	–	2092.8 kg/m3	–
1090 K	–	2092.8 kg/m3	–
1090.1 K	0.05496	–	–
1090.5 K	–	2092.2 kg/m3	–
1090.8 K	–	2092.1 kg/m3	–
1091.2 K	–	2093.7 kg/m3	–
1091.7 K	–	2093.7 kg/m3	–
1091.8 K	0.05506	–	–
1091.9 K	–	2093.1 kg/m3	–
1092.8 K	–	2091.9 kg/m3 and 2092.4 kg/m3	–
1093.1 K	–	2091.3 kg/m3	–
1093.4 K	0.05525	–	–
1093.8 K	–	2091.2 kg/m3	–
1094.1 K	–	2090.6 kg/m3	–
1094.4 K	–	2090.6 kg/m3	–
1094.8 K	–	2092.8 kg/m3	–
1095 K	–	2092.2 kg/m3	–
1095.1 K	0.05547	–	–
1095.5 K	–	2092.1 kg/m3	–
1096.2 K	–	2090.9 kg/m3	–
1096.3 K	–	2090.9 kg/m3 and 2091.5 kg/m3	–
1096.7 K	–	2090.3 kg/m3	–
1096.8 K	0.0556	–	–
1096.9 K	–	2089.7 kg/m3	–
1097.3 K	–	2089.1 kg/m3	–
1097.6 K	–	2089.1 kg/m3	–
1098 K	–	2088.5 kg/m3	–
1098.4 K	–	2087.9 kg/m3	–
1098.5 K	0.05571	–	–
1098.8 K	–	2087.3 kg/m3	–
1099.1 K	–	2087.2 kg/m3	–
1099.5 K	–	2086.6 kg/m3	–
1099.9 K	–	2086 kg/m3	–
1100.2 K	0.05586	2086 kg/m3	–
1100.7 K	–	2085.4 kg/m3	–
1101 K	–	2084.8 kg/m3	–
1101.5 K	–	2084.2 kg/m3	–
1101.8 K	–	2084.1 kg/m3	–
1101.9 K	0.05606	–	–
1102.1 K	–	2083.6 kg/m3	–
1102.6 K	–	2082.9 kg/m3	–
1102.9 K	–	2082.4 kg/m3	–
1103.2 K	–	2082.3 kg/m3	–
1103.6 K	0.05634	–	–
1103.8 K	–	2081.7 kg/m3	–
1104.2 K	–	2081.1 kg/m3	–
1104.6 K	–	2080.5 kg/m3	–
1105.2 K	–	2079.9 kg/m3	–
1105.3 K	0.05637	–	–
1105.5 K	–	2079.3 kg/m3	–
1105.7 K	–	2079.2 kg/m3	–
1106.3 K	–	2078.6 kg/m3	–
1106.6 K	–	2078 kg/m3	–
1107 K	–	2077.4 kg/m3	–
1107.1 K	0.05654	–	–
1107.6 K	–	2077.4 kg/m3	–
1107.9 K	–	2076.8 kg/m3	–
1108.5 K	–	2076.1 kg/m3	–
1108.8 K	0.05671	2076.1 kg/m3	–
1109.1 K	–	2074.4 kg/m3	–
1109.5 K	–	2073.8 kg/m3	–
1110 K	–	2073.2 kg/m3	–
1110.3 K	–	2073.1 kg/m3	–
1110.5 K	0.05682	–	–
1110.6 K	–	2072 kg/m3	–
1111.2 K	–	2071.9 kg/m3	–
1111.6 K	–	2071.3 kg/m3	–
1111.8 K	–	2070.8 kg/m3	–
1112 K	–	–	221.4
1112.3 K	0.05703	2070.1 kg/m3	–
1112.8 K	–	2069.5 kg/m3	–
1113 K	–	2069.5 kg/m3	–
1113.5 K	–	2068.9 kg/m3	–
1114 K	0.05718	–	–
1114.2 K	–	2068.3 kg/m3	–
1114.3 K	–	2068.2 kg/m3	–
1114.7 K	–	2067.1 kg/m3 and 2067.6 kg/m3	–
1114.9 K	–	2066.5 kg/m3	–
1115.4 K	–	2066.4 kg/m3	–
1115.7 K	0.05729	2065.9 kg/m3	–
1115.9 K	–	2065.3 kg/m3	–
1116.2 K	–	2064.7 kg/m3	–
1116.7 K	–	2064.6 kg/m3	–
1117 K	–	2064 kg/m3	–
1117.4 K	0.05756	–	–
1117.5 K	–	2063.4 kg/m3	–
1118 K	–	2068.9 kg/m3	–
1118.4 K	–	2068.3 kg/m3	–
1118.8 K	–	2067.7 kg/m3	–
1119 K	–	2067.7 kg/m3	–
1119.2 K	0.05765	–	–
1119.4 K	–	2067.1 kg/m3	–
1119.7 K	–	2066.5 kg/m3	–
1120.1 K	–	2065.9 kg/m3	–
1120.5 K	–	2065.8 kg/m3	–
1120.9 K	0.0578	–	–
1121 K	–	2069.1 kg/m3	–
1121.2 K	–	2068.5 kg/m3	–
1121.7 K	–	2067.9 kg/m3	–
1122.2 K	–	2067.3 kg/m3	–
1122.5 K	–	2066.7 kg/m3	–
1122.7 K	0.05808	–	–
1123.3 K	–	2066.1 kg/m3 and 2066.6 kg/m3	–
1123.7 K	–	2065.5 kg/m3	–
1124.4 K	0.05824	2064.8 kg/m3	–
1124.8 K	–	2064.2 kg/m3	–
1125.1 K	–	2063.6 kg/m3	–
1126 K	–	2063.5 kg/m3	–
1126.1 K	0.05803	–	–
1126.2 K	–	2062.9 kg/m3	–
1126.3 K	–	2062.4 kg/m3	–
1126.7 K	–	2061.8 kg/m3	–
1127.5 K	–	2061.1 kg/m3	–
1127.9 K	0.05831	2060.5 kg/m3 and 2061.1 kg/m3	–
1128.4 K	–	2059.9 kg/m3	–
1128.8 K	–	2059.9 kg/m3	–
1128.9 K	–	2069.8 kg/m3	–
1129.5 K	0.0585	–	–
1129.8 K	–	2069.1 kg/m3	–
1130.2 K	–	2068.5 kg/m3	–
1130.3 K	–	2068 kg/m3	–
1131 K	–	2067.3 kg/m3	218.4
